Measured values taken from PubChem BioAssay (NCI).
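At the GI50, growth is halved. TGI: total growth inhibition.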

Assays:
Assay in all cases: inhibition of tumour cell growth, NCI panel, 384-well format
[1] = tested on: 786-0 renal
[2] = tested on: A498 renal
[3] = tested on: A549 NSCLC
[4] = tested on: ACHN renal
[5] = tested on: BT-549 breast
[6] = tested on: CAKI-1 renal
[7] = tested on: COLO 205 colon
[8] = tested on: DU-145 prostate
[9] = tested on: EKVX NSCLC
[10] = tested on: HCT-116 colon
[11] = tested on: HCT-15 colon
[12] = tested on: HL-60(TB) leukemia
[13] = tested on: HOP-62 NSCLC
[14] = tested on: HOP-92 NSCLC
[15] = tested on: HS 578T breast
[16] = tested on: HT29 colon
[17] = tested on: IGROV1 ovarian
[18] = tested on: K-562 leukemia
[19] = tested on: KM12 colon
[20] = tested on: M14 melanoma
[21] = tested on: MALME-3M melanoma
[22] = tested on: MCF7 breast
[23] = tested on: MDA-MB-231 breast
[24] = tested on: MDA-MB-435 melanoma
[25] = tested on: MDA-MB-468 breast
[26] = tested on: MOLT-4 leukemia
[27] = tested on: NCI-H226 lung
[28] = tested on: NCI-H23 lung
[29] = tested on: NCI-H322M lung
[30] = tested on: NCI-H460 NSCLC
[31] = tested on: NCI-H522 lung
[32] = tested on: OVCAR-3 ovarian
[33] = tested on: OVCAR-4 ovarian
[34] = tested on: OVCAR-5 ovarian
[35] = tested on: OVCAR-8 ovarian
[36] = tested on: PC-3 prostate
[37] = tested on: RXF 393 renal
[38] = tested on: SF-268 CNS
[39] = tested on: SF-295 CNS
[40] = tested on: SF-539 CNS
[41] = tested on: SK-MEL-2 melanoma
[42] = tested on: SK-MEL-28 melanoma
[43] = tested on: SK-MEL-5 melanoma
[44] = tested on: SK-OV-3 ovarian
[45] = tested on: SN12C renal
[46] = tested on: SNB-19 CNS
[47] = tested on: SNB-75 CNS
[48] = tested on: SR leukemia
[49] = tested on: SW-620 colon
[50] = tested on: T-47D breast
[51] = tested on: TK-10 renal
[52] = tested on: U251 glioblastoma
[53] = tested on: UACC-257 melanoma
[54] = tested on: UACC-62 melanoma
[55] = tested on: UO-31 renal

## COc1cccc2c1nc(C(F)F)n2-c1nc(-c2ccc(NS(=O)(=O)CCN(C)C)cc2)nc(N2CCOCC2)n1
[1]
  GI50: 0.491 µM
  TGI: 1.69 µM
[2]
  GI50: 0.171 µM
  TGI: 0.961 µM
[3]
  GI50: 0.297 µM
  TGI: 1.26 µM
[4]
  GI50: 0.144 µM
  TGI: 1.05 µM
[5]
  GI50: 0.25 µM
  TGI: 1.4 µM
[6]
  GI50: 0.2 µM
  TGI: 1.42 µM
[7]
  GI50: 0.219 µM
  TGI: 1.1 µM
[8]
  GI50: 0.263 µM
  TGI: 1.39 µM
[9]
  GI50: 0.0539 µM
  TGI: 0.426 µM
[10]
  GI50: 0.32 µM
  TGI: 1.51 µM
[11]
  GI50: 0.3 µM
  TGI: 1.45 µM
[12]
  GI50: 0.116 µM
  TGI: 1.1 µM
[13]
  GI50: 0.285 µM
  TGI: 1.42 µM
[14]
  GI50: 0.167 µM
  TGI: 0.998 µM
[15]
  GI50: 0.0921 µM
  TGI: 0.377 µM
[16]
  GI50: 0.238 µM
  TGI: 1.47 µM
[17]
  GI50: 0.0249 µM
  TGI: 0.0963 µM
[18]
  GI50: 0.634 µM
  TGI: 1.95 µM
[19]
  GI50: 0.11 µM
  TGI: 1.22 µM
[20]
  GI50: 0.39 µM
  TGI: 1.71 µM
[21]
  GI50: 0.127 µM
  TGI: 0.874 µM
[22]
  GI50: 0.0213 µM
  TGI: 0.299 µM
[23]
  GI50: 0.319 µM
  TGI: 1.8 µM
[24]
  GI50: 0.255 µM
  TGI: 1.39 µM
[25]
  GI50: 0.0762 µM
  TGI: 0.431 µM
[26]
  GI50: 0.0468 µM
  TGI: 0.176 µM
[27]
  GI50: 0.195 µM
  TGI: 0.873 µM
[28]
  GI50: 0.148 µM
  TGI: 1.04 µM
[29]
  GI50: 0.151 µM
  TGI: 1.09 µM
[30]
  GI50: 0.302 µM
  TGI: 1.55 µM
[31]
  GI50: 0.0987 µM
  TGI: 0.689 µM
[32]
  GI50: 0.138 µM
  TGI: 1.11 µM
[33]
  GI50: 0.144 µM
  TGI: 1.55 µM
[34]
  GI50: 0.266 µM
  TGI: 5.44 µM
[35]
  GI50: 0.323 µM
  TGI: 1.59 µM
[36]
  GI50: 0.122 µM
  TGI: 1.2 µM
[37]
  GI50: 0.0224 µM
  TGI: 0.364 µM
[38]
  GI50: 0.374 µM
  TGI: 1.78 µM
[39]
  GI50: 0.161 µM
  TGI: 1.1 µM
[40]
  GI50: 0.179 µM
  TGI: 1.23 µM
[41]
  GI50: 0.282 µM
  TGI: 1.54 µM
[42]
  GI50: 0.191 µM
  TGI: 17.1 µM
[43]
  GI50: 0.0938 µM
  TGI: 0.371 µM
[44]
  GI50: 0.0835 µM
  TGI: 0.362 µM
[45]
  GI50: 0.229 µM
  TGI: 12.4 µM
[46]
  GI50: 3.8 µM
  TGI: 22.1 µM
[47]
  GI50: 0.0296 µM
  TGI: 0.361 µM
[48]
  GI50: 0.153 µM
  TGI: 0.408 µM
[49]
  GI50: 0.418 µM
  TGI: 1.78 µM
[50]
  GI50: 0.024 µM
  TGI: 0.12 µM
[51]
  GI50: 0.127 µM
  TGI: 1.22 µM
[52]
  GI50: 1.02 µM
  TGI: 2.2 µM
[53]
  GI50: 0.292 µM
  TGI: 1.36 µM
[54]
  GI50: 0.206 µM
  TGI: 1.25 µM
[55]
  GI50: 0.125 µM
  TGI: 0.384 µM
